Residues, ends and D or L forms follow the SMILES beside them. *: point of attachment. Cbz = O=C(OCc1ccccc1)*

Common to all, as to experiment: Kinetic parameters on synthetic peptide substrates (HPLC of hydrolysis products)
Common to all, as to format: biochemical

The target in assay [1] is T1, B.subtilis neutral protease, wild type (PN w.t.) (Bacillus subtilis, UniProt P68736).
T1 construct: made in house; host or cells: B. subtilis SMS 108 carrying pSM 127 (NRRL B-15900)
T1 sequence (P68736 222-521): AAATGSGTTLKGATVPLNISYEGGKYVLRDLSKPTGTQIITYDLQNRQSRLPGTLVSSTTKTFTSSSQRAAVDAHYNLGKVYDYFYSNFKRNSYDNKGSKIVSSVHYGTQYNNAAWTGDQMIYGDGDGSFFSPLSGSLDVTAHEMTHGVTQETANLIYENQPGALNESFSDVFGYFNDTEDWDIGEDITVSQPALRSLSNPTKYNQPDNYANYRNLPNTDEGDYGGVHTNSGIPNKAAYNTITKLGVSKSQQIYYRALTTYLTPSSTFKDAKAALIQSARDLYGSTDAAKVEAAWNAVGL
Also noted: unit not given beside the values. Conditions: 37° C., 25 mM Tris-HCl, pH 7.0, 2.5 mM calcium acetate. As for the experimental part: (§1) The kinetic parameters Km and Kcat of wild-type neutral protease and of the three mutants were determined on Z-Phe-Leu-Ala, Z-Ala-Leu-Ala, Z-Gly-Leu-Ala and Z-Val-Leu-Ala synthetic peptide substrates (Bachem, Bubendorf, CH).
(§2) The hydrolysis reactions were carried out at 37° C. in 0.6 ml of a solution containing 25 mM Tris-HCl, pH 7.0, and 2.5 mM calcium acetate, with the use of different concentrations of the substrate (from 0.2 to 20.0 mM) and of the enzyme (from 0.04 to 5 ug/ml).
(§3) 100 μl portions were withdrawn from the reaction mixtures at various time intervals, and 100 μl of a solution of H2 O:CH3 CN:H3 PO4 in a volumetric ratio of 64:34:1 were added and the mixture centrifuged at 14,000 rpm for 5 minutes.
(§4) 20 μl of the supernatant liquid thus obtained were then loaded into a VYDAC® 218 TP S415 HPLC column (4.6×150 mm, 10 μm particles) and the hydrolysis products (Z-Phe, Z-Ala, Z-Val and Z-Gly) were separated by isocratic elution at a flow rate of 1.5 ml/minute with the use of solutions A (0.05% H3 PO4, v/v) and B (H2 O:CH3 CN:H3 PO4, 4.95:95.0:0.05 v/v) in ratios which varied according to the substrate used.
(§5) The reaction products were measured as their absorbance at 220 nm and quantised by the integration of the elution peaks with the use of the System Gold program (Beckman).
(§6) Initial velocities (vi) and maximum velocities (Vmax) Km and Kcat were then found for each of the substrates with the use of the Michaelis-Manten equation [formula]

Assay [2] deals with T2, B.subtilis neutral protease mutant 189 (Gly 189 → Ala) (Bacillus subtilis, UniProt P68736, G406A).
T2 construct: made in house; host or cells: B. subtilis SMS 108 carrying pSM 375 (printed pSM 75; B. subtilis SMS 261)
Conditions: 189 mutant; 37° C., 25 mM Tris-HCl, pH 7.0, 2.5 mM calcium acetate. How it is done:
as §1, §2, §3, §4, §5, §6

The target of assay [3] is T3, B.subtilis neutral protease double mutant 147/189 (Gly 147 → Ala, Gly 189 → Ala) (Bacillus subtilis, UniProt P68736, G369A/G406A).
T3 construct: made in house; host or cells: B. subtilis SMS 108 carrying pSM 376 (B. subtilis SMS 262)
Conditions: 147/189 mutant; 37° C., 25 mM Tris-HCl, pH 7.0, 2.5 mM calcium acetate. As for the experimental part: as §1, §2, §3, §4, §5, §6

The target in assay [4] is T4, B.subtilis neutral protease mutant 147 (Gly 147 → Ala) (Bacillus subtilis, UniProt P68736, G369A).
T4 construct: made in house; host or cells: B. subtilis SMS 108 carrying pSM 374 (B. subtilis SMS 263)
To be noted: 147 mutant; 37° C., 25 mM Tris-HCl, pH 7.0, 2.5 mM calcium acetate. As for the experimental part: as §1, §2, §3, §4, §5, §6

T4 sequence (P68736 222-521 G369A): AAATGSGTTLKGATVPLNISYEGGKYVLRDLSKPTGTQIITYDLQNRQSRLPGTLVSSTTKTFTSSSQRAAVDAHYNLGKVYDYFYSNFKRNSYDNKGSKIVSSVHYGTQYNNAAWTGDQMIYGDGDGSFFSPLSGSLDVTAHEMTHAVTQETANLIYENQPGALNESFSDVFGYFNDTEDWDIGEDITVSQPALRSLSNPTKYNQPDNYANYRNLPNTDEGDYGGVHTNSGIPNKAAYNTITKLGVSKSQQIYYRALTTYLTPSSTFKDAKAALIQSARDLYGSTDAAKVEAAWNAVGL
T3 sequence (P68736 222-521 G369A/G406A): as the sequence (P68736 222-521 G369A) above, with G185A counted along it
T2 sequence (P68736 222-521 G406A): as the sequence (P68736 222-521 G369A) above, with A148G, G185A counted along it

For `CC(C)C[C@H](NC(=O)CNC(=O)OCc1ccccc1)C(=O)N[C@@H](C)C(=O)O` [Z--Gly--Leu--Ala, Z-Gly-Leu-Ala] (Cbz-Gly-Leu-Ala-OH), the Kcat in assay [1] came to 1150; in assay [2], 1847; in assay [3] it was 186.4; in assay [4], 105.8. Further, the Km in assay [2] was found to be 2.38 mM; in assay [3], 4.39 mM; in assay [4], 35.3 mM.

Consider `CC(C)C[C@H](NC(=O)[C@@H](NC(=O)OCc1ccccc1)C(C)C)C(=O)N[C@@H](C)C(=O)O` [Z--Val--Leu--Ala, Z-Val-Leu-Ala] (Cbz-Val-Leu-Ala-OH), for which the Kcat came out at 6.12 in assay [1], 13.12 in assay [2], 7.61 in assay [3] and 3.76 in assay [4]. In addition, the values for the Km in assay [2], in assay [3] and in assay [4] were 0.96 mM, 6.97 mM and 24 mM, respectively.

Turning to `CC(C)C[C@H](NC(=O)[C@H](Cc1ccccc1)NC(=O)OCc1ccccc1)C(=O)N[C@@H](C)C(=O)O` [Z--Phe--Leu--Ala, Z-Phe-Leu-Ala] (Cbz-Phe-Leu-Ala-OH), the Kcat in assay [1] is on record as 1986; in assay [2], 2139; in assay [3], 1038; in assay [4], 1933. Besides, the Km was 2.53 mM in assay [2], 0.95 mM in assay [3] and 9.36 mM in assay [4].

Take `CC(C)C[C@H](NC(=O)[C@H](C)NC(=O)OCc1ccccc1)C(=O)N[C@@H](C)C(=O)O` [Z--Ala--Leu--Ala, Z-Ala-Leu-Ala] (Cbz-Ala-Leu-Ala-OH): the Kcat in assay [1] was 3005; in assay [2], 2694; in assay [3], 1329; in assay [4] it was approximately 3500. Besides, the Km amounted to 1.53 mM in assay [2] and 8.72 mM in assay [3].

What is called Km is the concentration of substrate that gives half-maximal velocity.

(Values after patent US5252478A, “Thermostable mutants of neutral protease and means for their preparation” (Eniricerche S.p.A., priority 1990, dated 1993).)
